Experimental data reported in patent US3960863A, “Pyrido[1,2-a]pyrimidinone derivatives” (Sankyo Company Limited, priority 1974, dated 1976).
Like-named read-outs stand apart in the source and are kept apart here.

Assays:
[1] = test system: Thiopental-induced Anesthesia; test: Potentiating effect of thiopental-induced anesthesia (anesthesia-potentiating effect); format: in vivo, mouse; conditions: 0.5 h, read-out: Potentiating Effect of Thiopental-induced Anesthesia ED50
Experimental: The pharmacological test was performed in the manner that to a mouse having the body weight of about 25 g was orally administered and, after 30 minutes, given through the vein sodium thiopental in an amount of 30 mg per 1 kg of the body weight, and then the duration time of loss of righting reflux was detected. In the above Table, the value is expressed in ED50 value, by which the duration time of loss of righting reflex is prolonged twice as long as that of the control having been given with thiopental only.

[2] = Acute toxicity in mouse (LD50); conditions: in vivo
[3] = mouse, oral, sodium thiopental 30 mg/kg i.v. after 30 minutes, ED50 = dose doubling duration of loss of righting reflex vs control, Litchfield-Wilcoxon, 95% confidence limits in parentheses
[4] = ip, 95% confidence limits in parentheses where given, read-out: Acute Toxicity in mouse LD50 (i.p.)
[5] = po, 95% confidence limits in parentheses, read-out: Acute Toxicity in mouse LD50 (p.o.)

Structure (SMILES) | ED50 [1, 3] | LD50 [2, 4] | LD50 [2, 5] | ED50 ([1]; Mus musculus, po)
Cc1ccn2c(=O)c(CCN3CCN(c4cccc(Cl)c4)CC3)c(C)nc2c1 [3-[2-(4-m-Chlorophenyl-1-piperazinyl)ethyl]-2,8-dimethyl-4H-pyrido[1,2-a]pyrimidin-4-one] | 0.92 mg/kg | 100 to 300 mg/kg | 635 mg/kg | –
Cc1cccc(N2CCN(CCc3c(C)nc4c(C)cccn4c3=O)CC2)c1 [3-[2-(4-m-Tolyl-1-piperazinyl)ethyl]-2,9-dimethyl-4H-pyrido[1,2-a]pyrimidin-4-one] | 1.25 mg/kg | 100 to 300 mg/kg | – | –
COc1cccc(N2CCN(CCc3c(C)nc4cc(C)ccn4c3=O)CC2)c1 [3-[2-(4-m-Methoxyphenyl-1-piperazinyl)ethyl]-2,8-dimethyl-4H-pyrido[1,2-a]pyrimidin-4-one] | 0.7 mg/kg | 100 to 300 mg/kg | – | –
Cc1cccc(N2CCN(CCc3c(C)nc4cc(C)cc(C)n4c3=O)CC2)c1 [3-[2-(4-m-tolyl-1-piperazinyl)ethyl]-2,6,8-trimethyl-4H-pyrido[1,2-a]pyrimidin-4-one] | 1.7 mg/kg | 100 to 300 mg/kg | – | –
Cc1cccc(N2CCN(CCc3c(C)nc4cc(C)ccn4c3=O)CC2)c1 [3-[2-(4-m-tolyl-1-piperazinyl)ethyl]-2,8-dimethyl-4H-pyrido[1,2-a]pyrimidin-4-one] | 0.8 mg/kg | 100 to 300 mg/kg | 480 mg/kg | –
Cc1ccc(N2CCN(CCc3c(C)nc4c(C)cccn4c3=O)CC2)cc1 [3-[2-(4-p-Tolyl-1-piperazinyl)ethyl]-2,9-dimethyl-4H-pyrido[1,2-a]pyrimidin-4-one] | 1.8 mg/kg | 100 to 300 mg/kg | – | –
Cc1ccn2c(=O)c(CCN3CCN(c4ccc(Cl)cc4)CC3)c(C)nc2c1 [3-[2-(4-p-Chlorophenyl-1-piperazinyl)ethyl]-2,8-dimethyl-4H-pyrido[1,2-a]pyrimidin-4-one] | 2.9 mg/kg | 100 to 300 mg/kg | – | –
CN(C)CCCN1c2ccccc2Sc2ccc(Cl)cc21 [chlorpromazine, reference compound] | – | 105 mg/kg | 245 mg/kg | 3.5 mg/kg
